The test system of experiment [1] is cartilage. Description: small animal PET imaging of cartilage / osteoarthritis joints in mice. In kind it is in vivo. The procedure: The mice were injected with ^89Zirconium oxalate through tail vein and then imaged by small animal PET.
(§1) The mice were injected with tracer through tail vein and then imaged at 5 days post-injection by small animal PET (left two columns of images) and optical imaging instrument (in vivo and ex vivo) (right two columns images).

Experiment [2] deals with cartilage. The experiment in a line: optical (Cerenkov) imaging of joints in mice, in vivo and ex vivo. The settings on record: FIG. 3, tail vein injection, 5 days post-injection, optical imaging instrument (in vivo and ex vivo). The procedure: as §1
[3] abbreviates: FIG. 3, tail vein injection, 5 days post-injection.

For the substance ^89Zr oxalate, the “signal in OA joints” value in the experiment on cartilage [1] (FIG. 2, tail vein injection) is listed as “low signal”; in the experiment with cartilage [1] (setting [3]) it was “low signal”; in the experiment with cartilage [2] it was “low signal”. The “signal in sham and untreated joints” value with cartilage [1] (FIG. 2, tail vein injection) was “high signal”; in the experiment with cartilage [1] (setting [3]) it was “high signal”; with cartilage [2] it was “high signal”.

Values taken from US20140228682A1, “IMAGING PROBES, IMAGING SYSTEMS, AND METHODS OF IMAGING” (priority 2013, published 2014).
